Values quoted from earlier work in patent US20240002325A1, “OXYLIPINS, PROCESSES FOR MAKING THE SAME, AND METHODS FOR USING THE SAME” (THE TRUSTEES OF INDIANA UNIVERSITY, priority 2020, published 2024).

Columns and labels:
[1] = system: bacterial biofilms; conditions: in vitro; has been reported
[2] = system: flagellum-driven swimming and swarming motilities; conditions: has been reported

Q: Which results are given for `CCCCCCCCC(O)/C=C/CCCCCCC(=O)O` (centres unmarked) [Compound 10-HOME, (E)-10-hydroxyoctadec-8-enoic acid]?
A: effect on formation of bacterial biofilms [1]: stimulate the formation of bacterial biofilms in vitro; effect on flagellum-driven swimming and swarming motilities [2]: inhibit flagellum-driven swimming and swarming motilities
